Measured values taken from US20050261194A1, “Use of thymulin-like peptides for making pain-relieving medicines” (priority 2001, published 2005).

Key:
Format in all cases: in vivo, rat
rats [1] = assay: Localized inflammatory hyperalgesia induced by intraplantar injection of endotoxin (ET); PP, PI, HP, TF pain tests
Method: The experiments were conducted using adult, male Sprague-Dewless rats weighing between 200 and 250 g. The animals were reared under optimum conditions of light and temperature (12 h light and shadow cycle; 22±3° C.). Food and water were dispensed ad libitum. All of the experiments were conducted in compliance with the ethical directives relative to pain experiments done on animals in the conscious state (Zimmermann M., 1983, Ethical guidelines for investigations of experimental pain in conscious animals, Pain, 16:109-110) and they were approved by the Institutional Review Board for animal care.
Thermal and mechanical pain tests were done over a period of 3 consecutive days prior to the injections, in order to establish a baseline.
The mechanical nociceptive threshold was determined by the mechanical paw pressure test (PP), while that of the thermal nociceptive threshold was determined using the hot-plate (HP), the paw immersion in hot water (PI) and the tail flick (TF) tests.
The PP test is done by applying a constant pressure of 0.20 g/cm^2 alternatingly to the left and right hind paws in an interval of 5 minutes between 2 consecutive pressure applications.
In the HP test, the animals are placed individually on a hot plate (52.5° C.±0.3° C.). The pain threshold is measured by the latency period lapsed between the moment, at which the animal is placed on the hot plate and the first sign of pain, indicated by the fact that the animal licks the paw or jumps.
In the PI test, the hind paws are wetted alternately in distilled water at 48° C. and the latency time lapsed until the first sign of withdrawal of the paw is noted.
In the TF test, the tail of each animal is immersed in distilled water at 50.5° C. The latency time taken by the animal to withdraw it is noted. The results are based on 3 consecutive trials done in 5 minute intervals.
In the so-called localized model, the rats received on intraplantar injection of a solution (1.25 μg in 50 μl of […]) of endotoxin (Salmonella typhasa lipopolysaccharides, Sigma) into one of the hind paws, which induces both thermal and mechanical hyperalgesia restricted to the paw having received the injection.
Various treatments are then possible • Protocol 1(a): different groups of rats (n=5 in each group) were treated with the analogue peptide (TAP) Glu-Ala-lys-Ser-Gln-Gly-Gly-Ser-Asp (synthesized by Quantum Biotechnologies, Inc., Canada), in the following fashion : • either, they received one intraperitoneal injection (25 μg in 50 μl of physiological saline solution) of this peptide; • or, they were pretreated with different doses of this peptide (1.5 and 25 μg in 50 μl of sodium chloride) by intraperitoneal injection, 30 minutes prior to injection of endotoxins (ET) (1.25 μg in 50 μl of physiological saline solution by intraplantar injection). • Protocol 1(b): other experiments looked at comparing the efficacy of the analog peptides with that of steroids, NSAIDs and peptides known for their antagonism of the hyperalgesia induced by IL-1β and the prostaglandins.
One group of rats was pretreated with intraperitoneal injections of Lys-D-Pro-Thr (10 mg/kg) in 100 μl of physiological saline solution, 30 minutes prior to injection of TAP. This tripeptide is know for its antagonism of the hyperalgesia induced by IL-1β only.
In the second group, the rats received intraperitoneal injections of the Lys-D-Pro-Val tripeptide (10 mg/kg) in 100 μl of saline solution, 30 minutes prior to the injection of TAP. Lys-D-Pro-Val is an antagonist of the hyperalgesia induced by IL-1β and PEG2.
A third and a fourth group were treated with dexamethasone and indomethacin.
Dexamethasone phosphate dissolved in a […] sodium solution was injected, at a concentration of 200 μg/kg, just before and 3 hours after the injection of ET. […]

rats [2] = assay: Daily treatment with TAP in neuropathic rats (model not stated, FIG. 11); conditions: TAP 1 μg in 100 μL daily over 5 consecutive days
rats [3] = assay: Visceral pain induced by intraperitoneal injection of capsaicin; 4-level behavioral scale
Method: This test consisted of injecting (i.p.) 20 μg of capsaicin in 100 μl of a 10% solution Tween 20 in olive oil in some rats and observing the behavior induced by these injections. A 4-level behavioral scale was designed according to the method described by Giesler G J et al., (1976, Inhibition of visceral pain by electrical stimulation of the periaqueductal gray matter, Pain 2:43-48).
The levels were defined as follows: 0=normal behavior; 1=slight contraction of the abdominal muscles; 2=contraction of one single side and luxation of the haunch dropping; 3=significant contraction of the abdominal muscles and extension of the two rear paws.
For the evaluation of the animals' behavior, each rat was placed in transparent cage placed over a mirror inclined at 45° for optimum observation.
[…] None of the two observers knew the injection administered nor the expected effects.
For the injection i.p. of the capsaicin, the total time corresponding to each behavioral level was measured for the animals having received the capsaicin alone or the capsaicin after the TAP. The variation of the neuropathic manifestations or of the pain tests after the treatments were evaluated by ANOVA then by Bonfrerroni tests done post hoc. The variations of the pain scores with or without treatment were evaluated by the Student bilateral test by assuming a significance level of 5% (p<0.05).

Glu-Ala-lys-Ser-Gln-Gly-Gly-Ser-Asp (SQGGSD; N-terminal Glu-Ala-Lys; printed: Ser-Gln-Gly-Gly-Ser-Asp) [TAP]
effect compared with indomethacin and dexamethasone (rats [1]; ET 1.25 μg intraplantar, indomethacin 4 mg/kg, dexamethasone 200 μg/kg, FIG. 2): effects similar to those of indomethacin and dexamethasone but at much lower concentrations
analgesic efficacy compared with Lys-D-Pro-Val and Lys-D-Pro-Thr peptides (rats [1]; ET 1.25 μg intraplantar, tripeptides 10 mg/kg i.p., FIG. 2): much more efficacious analgesic agent
latency, paw pressure (PP) test (rats [1]; TAP 25 μg i.p. 30 min before ET 1.25 μg intraplantar, 9 h after ET, ET alone 0.87±0.09 s, saline 2.06±0.06 s): 2.05 ± 0.07 s
latency, paw immersion (PI) test (rats [1]; TAP 25 μg i.p. 30 min before ET 1.25 μg intraplantar, 9 h after ET, ET alone 1.25±0.04 s, saline 1.97±0.05 s): 1.94 ± 0.005 s
latency, tail flick (TF) test (rats [1]; TAP 25 μg i.p. 30 min before ET 1.25 μg intraplantar, 9 h after ET, ET alone 2.40±0.06 s, saline 3.19±0.08 s): 3.22 ± 0.09 s
latency, hot-plate (HP) test (rats [1]; TAP 25 μg i.p. 30 min before ET 1.25 μg intraplantar, 9 h after ET, ET alone 6.0±0.18, saline 9.24±0.16 s): 9.12 ± 0.7 s
effect on hyperalgesia induced by intraplantar ET (rats [1]; TAP 1.5 and 25 μg i.p. pretreatment, FIG. 1): reduced in dose-dependent fashion the hyperalgesia
change in latency time in the pain tests, TAP alone (rats [1]; TAP alone 25 μg in 50 μl saline i.p., no ET): did not result in significant change in the latency time
effect of daily treatment on allodynia (rats [2]; FIG. 11): progressive reduction of the manifestations of the allodynia
effect of daily treatment on the effects of each injection (rats [2]; FIG. 11): potentiation of the effects of each injection
effect of daily treatment on cold allodynia (rats [2]; compared with single injection): increased inhibition of the cold allodynia
effect on nociception scores induced by capsaicin (rats [3]; TAP 50 μg before capsaicin 20 μg i.p., FIG. 9): significant shift to the left
time at behavioral level 0 (rats [3]; TAP 50 μg in 200 μl/rat before capsaicin 20 μg i.p., capsaicin alone 0.2±0.3, 36 minutes observation): 0.82 ± 0.18 min
time at behavioral level 1 (rats [3]; TAP 50 μg in 200 μl/rat before capsaicin 20 μg i.p., capsaicin alone 2.51±0.45, 36 minutes observation): 12.89 ± 2.5 min
time at behavioral level 3 (rats [3]; TAP 50 μg in 200 μl/rat before capsaicin 20 μg i.p., capsaicin alone 11.84±0.43, 36 minutes observation): 6.67 ± 0.09 min
time at behavioral level 2 (rats [3]; TAP 50 μg in 200 μl/rat before capsaicin 20 μg i.p., capsaicin alone 21.5±0.8, 36 minutes observation): 15.62 ± 0.9 min
